In one series the test system is FGF21. In words: Plasma FGF21 level in Zucker fatty rats, ELISA. It counts as in vivo, rat. To be noted: compound A 3 mg/kg, oral once a day for 14 days, day 14. How it is done: (§1) This test employed (R)-2-[3-[[N-(benzoxazol2-yl) -N-3-(4-methoxyphenoxy)propyl]aminomethyl]phenoxy]butyric acid (hereinafter will be referred to as “compound A”), which is an optically active substance of the compound disclosed in Example 14 in Patent Document 2. Compound A or fenofibrate was administered to Zucker fatty rats, and the effects of the compound on plasma triglyceride (TG) level, plasma FGF21 level, and epididymal fat weight were determined through the below-described methods.
(§2) Hyperlipidemic Zucker fatty rats with obesity due to overeating (Crlj: ZUC-Lepr Genotype: fa/fa) and Zucker lean rats without obesity (Crlj: ZUC-Lepr Genotype: fa/+ or +/+) were purchased from Charles River Laboratories Japan Inc. (eight weeks old upon test).
(§3) Throughout the test period, the rats were reared in a rearing cage (light-dark cycle (light period by interior lighting: 7:00 a.m. to 7:00 p.m.), temperature: 23+3° C., humidity: 55±15%) under conditions where solid feed (CE-2, product of Oriental Yeast Co., Ltd.) and tap water were fed ad libitum. […]
(§4) On day 14 after initiation of administration, blood was collected after four-hour fasting following administration, and plasma triglyceride level and plasma FGF21 level were measured through an enzymatic method and ELISA (Human FGF-21 ELISA Kit, product of Biovender), respectively. […]

For series [1], the system named is KK-Ay mice. The following applies: mouse, in vivo, 1 mg/kg. How it is done:
(§5) Animals were divided into the following four groups (six animals per group): a first group (control), a second group (administration of compound A (1 mg/kg)), a third group (administration of compound B (3 mg/kg)), and a fourth group (administration of fenofibrate (300 mg/kg)).
(§6) Each drug was orally administered once a day (in the morning) for 35 days. A 0.5 mass % aqueous methylcellulose solution was orally administered (5 mL/kg) to the animals of the first group (control).

The subject of series [2] is Zucker fatty rats. As to the kind of experiment: Plasma triglyceride (TG) level in Zucker fatty rats, enzymatic method. The class given is in vivo, rat. To be noted: compound A 3 mg/kg, oral once a day for 14 days, blood on day 14 after four-hour fasting. How it is done:
as §1, §2, §3, §4

Series [3] relates to Zucker fatty rats. As to the kind of experiment: Adverse events and feed intake during administration to Zucker fatty rats. It counts as in vivo, rat. How it is done: Rats were divided into the following four groups (six rats per group) so that body weights, plasma total cholesterol levels, and plasma triglyceride levels were averaged in the groups: a first group (control), a second group (administration of compound A (1 mg/kg)), a third group (administration of compound A (3 mg/kg)), and a fourth group (administration of fenofibrate (300 mg/kg)). A group of five Zucker lean rats was employed as a negative control group.
Each drug was orally administered once a day (in the morning) for continuous 14 days. A 0.5 mass % aqueous methylcellulose solution (2 mL/kg) was orally administered to the rats of the first group (control).
However, from 11 days to 14 days after administration, feed intake was reduced by 14% in the rats of the group of fenofibrate administration, which raised a concern about the toxicity of fenofibrate. Even under such a situation, fat weight tended to decrease only slightly.

The subject of series [4] is Zucker fatty rats. As to the kind of experiment: Epididymal fat weight (indicator of visceral fat weight) in Zucker fatty rats. The class given is in vivo, rat. The following applies: compound A 3 mg/kg, oral once a day for 14 days. How it is done:
as §1, §2, §3, §4

The test system of series [5] is KK-Ay mice. In words: Fat weight reducing effect on obesity model mice (KK-Ay mice). It counts as in vivo, mouse. To be noted: oral once a day for 35 days. How it is done: This test employed compound A, as well as (R)2-[3-[ [N-(5-fluorobenzoxazol2-yl)-N2-phenoxyethyl]aminomethyl]phenoxy]butyric acid (hereinafter will be referred to as “compound B”), which is an optically active substance of the compound disclosed in Example 229 in Patent Document 2. Compound A, compound B, or fenofibrate was administered to KK-Ay mice, and the effects of the compound on epididymal fat weight and mesenteric fat weight were determined through the below-described methods.
Method: Male KK-Ay mice (KK-Ay/TaJcl) were purchased from Clea Japan, Inc. (10 weeks old upon test). Each compound was orally administered to mice once a day for […]. Throughout the test period, the mice were reared in a rearing cage (light-dark cycle (light period by interior lighting: 7:00 a.m. to 7:00 p.m.), temperature: 23±3° C., humidity: 55+15%) under conditions where solid feed (CE-2, product of Oriental Yeast Co., Ltd.) and tap water were fed ad libitum.
Each of compound A, compound B, and fenofibrate was suspended in a 0.5 mass % aqueous solution of methylcellulose (Metolose (registered trademark), SM-400, product of Shin-Etsu Chemical Co., Ltd.) so that the dose of the aqueous solution was adjusted to 5 mL/kg. The resultant suspension was refrigerated in a light-shielding bottle at 4° C., and drug preparation was carried out every seven days.
as §5, §6
After completion of administration, epididymal fat and mesenteric fat were removed and weighed.
The results were represented as percent reduction (mean value) in fat weight in each compound administration group with respect to the control group.

The next series relates to rat model. To be noted: cited from earlier work.

Regarding `CC[C@@H](Oc1cccc(CN(CCCOc2ccc(OC)cc2)c2nc3ccccc3o2)c1)C(=O)O` [Compound A, (R)-2-[3-[[N-(benzoxazol2-yl) -N-3-(4-methoxyphenoxy)propyl]aminomethyl]phenoxy]butyric acid], the “plasma FGF21 level versus control group” value with FGF21 was “significantly (p<0.001) higher than that in the control group”. In the series on KK-Ay mice [1], the “adverse events during the period of administration” value is given as “adverse events were not particularly observed”. Also, the “plasma triglyceride level versus control group” value in the series with Zucker fatty rats [2] is reported as “significantly (p<0.05) lower than that in the control group”. Also, in the series with Zucker fatty rats [3] (rat, in vivo, po), the “adverse events during the period of administration” value was “adverse events were not particularly observed”. In the series with Zucker fatty rats [4], the “epididymal fat weight versus control group” value is “considerably and statistically significantly lower than that in the control group”. Moreover, in the series on KK-Ay mice [5] (1 mg/kg), the “Epididymal fat weight, percent reduction (mean value) with respect to the control group” value is listed as 27% and the “Mesenteric fat weight, percent reduction (mean value) with respect to the control group” value (“Mesenteric fat weight, percent reduction” below) stood at 20%.

`CC[C@@H](Oc1cccc(CN(CCOc2ccccc2)c2nc3cc(F)ccc3o2)c1)C(=O)O` [Compound B, (R)2-[3-[ [N-(5-fluorobenzoxazol2-yl)-N2-phenoxyethyl]aminomethyl]phenoxy]butyric acid]: the “Mesenteric fat weight, percent reduction” value in the series on KK-Ay mice [5] (3 mg/kg) is 17%.

As for `CC(C)OC(=O)C(C)(C)Oc1ccc(C(=O)c2ccc(Cl)cc2)cc1` [Fenofibrate, fenofibrate], in the series with rat model (high dose of fenofibrate, rat model), the “adverse events at high dose” value was “adverse events (e.g., decrease in hemoglobin, or necrosis of liver cells) occur in the model”. In the series on rat model (rats, dose of 30 mg/kg or more), the adverse events entry is on record as “various adverse events occur in the rats”. Further, in the series with Zucker fatty rats [3] (fenofibrate 300 mg/kg, Zucker fatty rats, for 10 days after administration), the “feed intake compared with control group” value was “maintained equal to that in the rats of the control group”. For the same compound, the “reduction of feed intake” value in the series on Zucker fatty rats [3] (fenofibrate 300 mg/kg, Zucker fatty rats, from 11 days to 14 days after administration) worked out at 14%. Further, in the series with KK-Ay mice [5] (300 mg/kg), the “Epididymal fat weight, percent reduction (mean value) with respect to the control group” value came to 15% and the “Mesenteric fat weight, percent reduction” value stood at 13%.

These data come from US20250268868A1, “AGENT FOR REDUCING VISCERAL FAT WEIGHT” (Kowa Co., Ltd., priority 2009, published 2025).
